Reference: PubChem BioAssay AID1996
In brackets after ≈: the same amount, converted by molar mass.

Details: buffer; pH 7.4; 200.0 µM

SMILES | solubility kinetic
COc1ccc(CCC2CCNCC2)cc1.Cl | > 38.4 µg/mL
CCC(C(=O)O)N1C(=O)C2CCCCC2C1=O (centres undefined) | > 35.9 µg/mL
Cc1ccc(NC(=O)Cn2c(=O)oc3ccccc32)cc1 | 7.2 µg/mL (≈ 25.5 µM)
CN(CCc1ccccn1)C(=S)Nc1ccc(Cl)cc1Cl | 46.2 µg/mL (≈ 136 µM)
CC(C)/C(C=O)=C(/NC1CCCCC1)c1ccccc1 | 0.9 µg/mL (≈ 3.32 µM)
Oc1ccccc1N1CCN(C(=S)NCc2ccccc2)CC1 | 22.4 µg/mL (≈ 68.4 µM)
O=C(Nc1ccc2c(c1)CCC2)c1cc(F)cc(F)c1 | 3.7 µg/mL (≈ 13.5 µM)
O=C(COC(=O)c1cc(=O)[nH]c2ccccc12)NCc1cccs1 | > 51.4 µg/mL
COc1ccccc1NS(=O)(=O)c1ccc2oc(=S)[nH]c2c1 | > 50.5 µg/mL
Cc1ccc(C)c(NC(=S)N(C)CCO)c1 | > 35.8 µg/mL
COc1cccc(CNC(=O)CCCc2cn(C)c3ccccc23)c1 | 6.1 µg/mL (≈ 18.1 µM)
C=CCn1cccc(C(=O)Nc2ccc(C)c(Cl)c2)c1=O | < 0.3 µg/mL
CC(NC(=O)c1ccco1)c1nc(-c2ccccc2)no1 (centres undefined) | 31.7 µg/mL (≈ 112 µM)
Cc1ccccc1C(=O)NC1CCN(CC(=O)NCc2ccccc2)CC1 | 47.7 µg/mL (≈ 131 µM)
CN(C(=O)CSc1nccc(=O)[nH]1)C1CCCCC1 | > 42.2 µg/mL
Cn1c(/C=C/c2ccc(Cl)cc2)nc2ccccc2c1=O | < 0.3 µg/mL
O=C(O)C(=O)O.O=S(=O)(c1cccc(C(F)(F)F)c1)N1CCN(CC(O)COCc2ccccc2)CC1 (centres undefined) | > 82.3 µg/mL
CC(=O)N1c2ccccc2C(CBr)=CC1(C)C | 31.8 µg/mL (≈ 108 µM)
O=C(CNC(=O)c1ccco1)Nc1ccc(F)c(Cl)c1 | 2.5 µg/mL (≈ 8.43 µM)
COc1cc2c(cc1OC)/C(=C/C(=O)c1cccc([N+](=O)[O-])c1)NCC2 | 0.5 µg/mL (≈ 1.41 µM)

SMILES | solubility kinetic
Nc1ccc(C2(c3ccc(N)cc3)OC(=O)c3ccccc32)cc1 | 32.1 µg/mL (≈ 101 µM)
CC(=O)c1ccc(OC(C)C(=O)Nc2cccc(S(=O)(=O)NCc3ccco3)c2)cc1 (centres undefined) | > 66.4 µg/mL
COc1cccc(CC(CC(=O)O)C(=O)Nc2cc(C)ccc2C)c1 (centres undefined) | 35.7 µg/mL (≈ 105 µM)
O=C(NCc1ccccc1)c1ccc2ccccc2n1 | 26.3 µg/mL (≈ 100 µM)
CN(Cc1ccccc1)C(=O)Nc1ccc(Cl)cc1 | 38.5 µg/mL (≈ 140 µM)
O=C(C#Cc1ccccc1)Nc1ccc(F)cc1 | 2.4 µg/mL (≈ 10 µM)
O=C(O)c1ccc(N=Cc2c(O)ccc3oc4c(c23)CCCC4)cc1 | > 50.3 µg/mL
CCCNC(=O)CNC(=S)N(Cc1ccccc1F)C1CCCCC1 | 42.3 µg/mL (≈ 116 µM)
CC(C)(C)NC(=O)COC(=O)c1ccccc1C(=O)c1ccccc1 | 43.4 µg/mL (≈ 128 µM)
COc1cc(N)c(Cl)cc1C(=O)OCC(=O)NC1CCCC1 | > 49 µg/mL
C#CCn1cccc(C(=O)Nc2ccc(OC)cc2)c1=O | 6.3 µg/mL (≈ 22.3 µM)
CCCCn1c(-c2cccs2)nc2oc3ccccc3c(=O)c2c1=O | 1.2 µg/mL (≈ 3.41 µM)
Cc1ccccc1NC(=S)NC(=O)COc1ccccc1C | 1.1 µg/mL (≈ 3.5 µM)
COC(=O)c1ccccc1NC(=S)N1CCOCC1 | 40.1 µg/mL (≈ 143 µM)
O=C(O)CCNC(=O)C12CC3CC(CC(C3)C1)C2 | > 37.7 µg/mL
O=C(CN1CCCCCCC1)Nc1cccc(Cl)c1Cl | < 0.3 µg/mL
Cn1c(=O)c2c([nH]c(=S)n2CCCc2ccccc2)n(C)c1=O | 35.8 µg/mL (≈ 108 µM)
CC(=O)c1c(-c2ccc(C)cc2)nc2c3ccccc3ccn12 | < 0.3 µg/mL
CC(=O)Nc1ccc(-c2nc3ccccc3c(=O)o2)cc1 | 0.5 µg/mL (≈ 1.78 µM)
Cn1c(N)c(N2CCCCC2)c(=O)n(CC(=O)Nc2cccc(C#N)c2)c1=O | > 57.4 µg/mL

SMILES | solubility kinetic
O=C(NCC1CCCCC1)c1ccc([N+](=O)[O-])cc1 | 5.1 µg/mL (≈ 19.4 µM)
O=C(NCc1ccccc1)c1nc2ccccc2s1 | 17.4 µg/mL (≈ 64.8 µM)
N#Cc1c(N)n(-c2ccc(N)cc2)c2nc3ccccc3nc12 | 1.2 µg/mL (≈ 4 µM)
COc1ccc(OC)c(CNc2c(C=O)c(=O)[nH]c3ccccc23)c1 | < 0.4 µg/mL
CC(NS(=O)(=O)c1ccc(Cl)cc1)C(=O)N1CCOCC1 (centres undefined) | 39.7 µg/mL (≈ 119 µM)
O=C(CS(=O)(=O)c1ccccc1)Nc1nc2ccccc2s1 | > 49.9 µg/mL
Cc1ccccc1NC(=O)CC(=O)Nc1ccccc1C | > 42.4 µg/mL
C#CCn1ccc(O)c(Cc2ccccc2)c1=O | > 35.9 µg/mL
c1ccc(Cc2c[nH]c3ccccc23)cc1 | 6.7 µg/mL (≈ 32.3 µM)
Cc1cc(C)cc(OC(=O)c2cccnc2)c1 | 30.6 µg/mL (≈ 135 µM)
COCCn1c(SCC(=O)N2CCOCC2)nnc1-c1ccco1 | > 52.9 µg/mL
CC1CCC(NC(=O)Cn2cnc3sccc3c2=O)CC1 (centres undefined) | > 45.8 µg/mL
Cc1cc(C)c2c(n1)sc1c(N3CCCCC3)ncnc12 | < 0.2 µg/mL
CC(=O)c1sc(-c2ccccc2)cc1N | 28.4 µg/mL (≈ 131 µM)
Cc1c(C)c(C)c2[nH]c(-c3ccc4c(c3)OCO4)nc2c1C | < 0.3 µg/mL
Nc1nc(C23CC4CC(CC(Cl)(C4)C2)C3)cs1 | 8.5 µg/mL (≈ 31.6 µM)
O=C(NCCNC(=O)c1ccccc1F)c1ccccn1 | > 43.1 µg/mL
CCC(C)n1c(O)c(C=NCCc2ccccc2)c(=O)[nH]c1=S (centres undefined) | 5.1 µg/mL (≈ 15.4 µM)
CCc1sc(C(=O)Nc2ccccc2N2CCOCC2)cc1C | 2.5 µg/mL (≈ 7.57 µM)
